This is an account of results in paper PMC9575645 (Signal Transduction and Targeted Therapy, 2022).

Molecules are shown by their SMILES.

Data set [1] deals with HSL phosphorylation. Kind of data set: HSL phosphorylation by western blot in SARS-CoV-2-infected Vero E6 cells. Type of data set: cell-based, African green monkey. The conditions noted are these: 5 μM or 50 μM.
Data set [2] concerns HSL phosphorylation. Kind of data set: HSL phosphorylation by western blot in IAV-infected A549 cells. Type of data set: cell-based, human. Conditions: 5 μM or 50 μM. For orientation: Immunoblotting shows a protein as a band on a membrane.
Data set [3] relates to Influenza A virus (H1N1) (PR8). The conditions noted are these: IAV; FFA-deprived condition in lipase inhibitor-treated cells; 100 µM.
In data set [4] the test system is SARS-CoV-2 (KCDC03). Kind of data set: In vitro antiviral activity against SARS-CoV-2 in Vero E6 cells (CCIF viral yield, RT-qPCR). The data set is classed as cell-based. The conditions noted are these: SARS-CoV-2; FFA-deprived condition in lipase inhibitor-treated cells; 100 µM.
Data set [5] is described as follows: In vivo toxicity in hamsters (body weight, gross and histopathological organ changes). The conditions noted are these: 80 mg kg^-1 d^-1 atglistatin and 2.5 mg kg^-1 d^-1 remdesivir, singly or in combination.
Experimental: Three groups of 3 hamsters were treated intraperitoneally with 20, 40, and 80 mg kg^-1 d^-1 of atglistatin prepared in a 100 μL vehicle [50% PEG400 in water (vol/vol)] Bid with a 12 h interval for four and a half consecutive days, respectively (Table S10). One group of 3 control anesthetized hamsters was administered intraperitoneally with 100 μL vehicle Bid with a 12 h interval for four and a half consecutive days (Table S10).
Histopathological changes in lungs, liver, kidney, heart, and spleen from the experimental mice or hamsters in each experimental group were determined as described elsewhere.^35 Briefly, each sample from the mice or hamsters in each experimental group was fixed in sufficient 10% neutral formalin at 20°C for 3-4 days, washed in tap water, then trimmed, and thereafter processed in the automatic embedding machine for the dehydration and paraffin embedment. Tissue sections, prepared on slides at a thickness of 3 μm by a microtome, were used for hematoxylin and eosin (H&E) staining or IHC as described below. H&E stained sections were observed under light microscopy. The morphological changes to lung, liver, kidney, heart, and spleen tissues were reviewed in a blinded manner as previous described.^35

With `O=S(=O)(NCCNC/C=C/c1ccc(Br)cc1)c1cccc2cnccc12` [H89], the “viral-mediated HSL phosphorylation” value in data set [1] and in data set [2] was “prevented viral-mediated HSL phosphorylation” throughout.
As to `CCCCC/C=C\C/C=C\CCCCCCCC(=O)O` [LA, linoleic acid], the “virus replication on FFA supplementation” value in data set [3] and in data set [4] was “rescue of replication” each time.
In the case of `CCCCCCCC/C=C\CCCCCCCC(=O)O` [OA, oleic acid], the “virus replication on FFA supplementation” value in data set [3] and in data set [4] was “rescue of replication” throughout.
Take `CCCCCCCCCCCCCCCC(=O)O` [PA, palmitic acid]: the “virus replication on FFA supplementation” value in data set [3] and in data set [4] was “rescue of replication” in each case.
Turning to `CCC(CC)COC(=O)[C@H](C)N[P@](=O)(OC[C@H]1O[C@@](C#N)(c2ccc3c(N)ncnn23)[C@H](O)[C@@H]1O)Oc1ccccc1` [remdesivir], the “toxicity, including body weight loss” value in data set [5] is “no toxicity”.
